Test results reported in US11492636B2, “Modified bialaphos resistance acetyltransferase compositions and uses thereof” (Whitehead Institute for Biomedical Research, priority 2016, dated 2022).
Values joined by “and” are separate entries in the source; they are usually repeats but may differ in a detail not shown here. Identical values can stand only once.

Molecular target: T1, BAR (Streptomyces hygroscopicus, UniProt P16426)
T1 construct: made in house; host or cells: E. coli BL21(DE3)
Experiment: In vitro enzyme kinetic assays of recombinant BAR against native and non-native substrates
Format: biochemical
Conditions: for in vitro substrate of BAR (N-acetyltransferase activity): recombinant BAR, up to 8.4 mM substrate; for KM values of BAR against aminoadipate and tryptophan (estimated): substrates reached solubility limit before saturation
Description: The BAR coding sequence was amplified by PCR (KaPa HiFi HotStart polymerase; KaPa Biosystems) from genomic DNA extracted from homozygous plants of the SAIL line SAIL_1165_B02 using primers SAIL_BAR_F_pPROEX and SAIL_BAR_R_pPROEX (see Table 3) and then cloned into pProEX Hta (Invitrogen) via EcoRI and HindIII resulting in a 6×His-BAR fusion construct. 6×His-BAR was expressed in E. coli BL21(DE3) grown in Luria-Bertani medium. At an optical density at 600 nm of 0.6, protein expression was induced with 1.0 mM isopropylthio-β-galactoside (IPTG), and cells were grown at 37° C. for 2.5 h. Cells from a 200 mL culture were harvested by centrifugation and resuspended in 8 mL binding buffer (20 mM HEPES-KOH pH 7.4, 0.5 M NaCl, 10% (v/v) glycerol, 20 mM imidazole) supplemented with 3 U mL^−1 DNase (Promega), 2 mM MgCl2 and 1/10 of a tablet containing a protease inhibitor cocktail (Complete; Roche Applied Science). Cell lysis was performed by use of a high-pressure cell breaker (Cell Disruption System; Constant Systems) at a pressure of 150 MPa. All the following steps were carried out at 4° C. The lysate was centrifuged (16,000 g, 20 min) and a 50% (v/v) slurry of Ni^2+-ion charged agarose beads (Ni Sepharose 6 Fast Flow; GE Healthcare) in binding buffer was added to the supernatant (0.25 mL 50% slurry per mL of supernatant). The mix was incubated for 1 h with slight shaking and then loaded on a Poly-Prep® chromatography column (0.8×4 cm; Bio-Rad). The beads were washed with 10 mL of binding buffer and 3 mL of wash buffer (20 mM HEPES-KOH pH 7.4, 0.5 M NaCl, 10% (v/v) glycerol, 40 mM imidazole) by gravity flow before elution with 3 mL of elution buffer (20 mM HEPES-KOH pH 7.4, 0.5 M NaCl, 10% (v/v) glycerol, 500 mM imidazole). The buffer was exchanged with storage buffer (20 mM HEPES-KOH pH 7.4, 0.5 M NaCl, 10% (v/v) glycerol, 1 mM dithiothreitol) using an ultra-centrifugal filter (MWCO 10,000; Vivaspin 6, Sartorius Stedim Biotech). The purity of the protein preparation was assessed by SDS-PAGE and the concentration was determined by using a NanoDrop 2000 UV-VIS spectrometer (Thermo Scientific).
Enzyme assays were carried out in 10 mM HEPES-KOH (pH 7.4), 20 mM MgCl2, and 2 mM acetyl-CoA (Sigma-Aldrich; final volume 25 μl). Before determining the kinetics of BAR with different substrates, time-dependent activity of the purified protein was tested at substrate concentrations of 200 μM L-phosphinothricin (glufosinate ammonium, considered as a 1:1 mixture of L- and D-enantiomers; Sigma-Aldrich) or 400 μM (L-aminoadipate and L-tryptophan; Sigma-Aldrich). Reactions were initiated by the addition of purified BAR at 0.03 μM (assays with L-phosphinothricin) or 20 μM (assays with aminoadipate or tryptophan) and incubated at 25° C. for the indicated times (FIGS. 8A-8D). Reactions were stopped by the addition of three volumes of methanol supplemented with 0.5% (v/v) formic acid. Likewise, substrate concentration-dependence was determined by incubating assays for 7.5 min (assays with L-phosphinothricin) or 2 h (assays with aminoadipate or tryptophan; FIG. 3). Control assays (FIG. 3B) were performed with aminoadipate and tryptophan at 8.4 mM, but in the absence of BAR. In addition, D-tryptophan (Sigma-Aldrich) was tested as potential substrate at 8.4 mM (FIG. 3B).
In vitro assays with aminoadipate and tryptophan as substrate were analyzed by LC-MS as described above. In vitro assays with L-phosphinothricin were analyzed by LC-MS as described above, but using a normal-phase chromatography system as follows: an 150 mm amide column (ACQUITY UPLC™ BEH amide, 1.7 μm, 2.1×150 mm, Waters) was developed using LC-MS solvents (Chemie Brunschwig) with a gradient (flow rate of 0.4 mL min^−1) of solvent B (acetonitrile with 0.1% (v/v) formic acid) in solvent A (water with 0.1% (v/v) formic acid) as follows (all (v/v)): 95% for 0.5 min, 95% to 30% in 12 min, 30% for 2 min, 30% to 95% in 1 min and 95% for 5 min. […]

T1 sequence (P16426 whole entry): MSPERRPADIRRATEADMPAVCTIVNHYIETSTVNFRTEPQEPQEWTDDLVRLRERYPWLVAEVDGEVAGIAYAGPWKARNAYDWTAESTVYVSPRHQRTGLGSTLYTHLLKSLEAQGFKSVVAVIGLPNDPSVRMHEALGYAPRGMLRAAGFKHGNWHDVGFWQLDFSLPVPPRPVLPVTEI

| SMILES | catalytic activity of BAR toward aminoadipate compared with tryptophan (in vitro) | in vitro substrate of BAR (N-acetyltransferase activity) | KM values of BAR against aminoadipate and tryptophan (estimated) | Km (N-acetylation by recombinant BAR, Michaelis-Menten kinetics, read-out: apparent KM) |
| --- | --- | --- | --- | --- |
| NC(CCCC(=O)O)C(=O)O [aminoadipate, L-aminoadipate] | relatively higher catalytic activity | in vitro substrates of BAR | at least in the millimolar range | – |
| N[C@@H](Cc1c[nH]c2ccccc12)C(=O)O [tryptophan, L-tryptophan] | – | in vitro substrates of BAR | at least in the millimolar range | – |
| CP(=O)(O)CC[C@H](N)C(=O)O [phosphinothricin, reference compound] | – | – | – | ~39 µM and 39 µM |
